Laboratory results as given in US9428460B2, “N-[4-(quinolin-4-yloxy)cyclohexyl(methyl)](hetero)arylcarboxamides as androgen receptor antagonists, production and use thereof as medicinal products” (BAYER PHARMA AKTIENGESELLSCHAFT, priority 2012, dated 2016).

Key:
[1] = target: androgen receptor mutant E709Y (Homo sapiens (Human), UniProt P10275, E710Y); assay: Transactivation assay for the androgen receptor mutant E709Y (transfected PC-3 cells); type: cell-based; conditions: in the presence of 1×10^−10 M R1881, 24 hours
Sequence of androgen receptor mutant E709Y (P10275 whole entry E710Y): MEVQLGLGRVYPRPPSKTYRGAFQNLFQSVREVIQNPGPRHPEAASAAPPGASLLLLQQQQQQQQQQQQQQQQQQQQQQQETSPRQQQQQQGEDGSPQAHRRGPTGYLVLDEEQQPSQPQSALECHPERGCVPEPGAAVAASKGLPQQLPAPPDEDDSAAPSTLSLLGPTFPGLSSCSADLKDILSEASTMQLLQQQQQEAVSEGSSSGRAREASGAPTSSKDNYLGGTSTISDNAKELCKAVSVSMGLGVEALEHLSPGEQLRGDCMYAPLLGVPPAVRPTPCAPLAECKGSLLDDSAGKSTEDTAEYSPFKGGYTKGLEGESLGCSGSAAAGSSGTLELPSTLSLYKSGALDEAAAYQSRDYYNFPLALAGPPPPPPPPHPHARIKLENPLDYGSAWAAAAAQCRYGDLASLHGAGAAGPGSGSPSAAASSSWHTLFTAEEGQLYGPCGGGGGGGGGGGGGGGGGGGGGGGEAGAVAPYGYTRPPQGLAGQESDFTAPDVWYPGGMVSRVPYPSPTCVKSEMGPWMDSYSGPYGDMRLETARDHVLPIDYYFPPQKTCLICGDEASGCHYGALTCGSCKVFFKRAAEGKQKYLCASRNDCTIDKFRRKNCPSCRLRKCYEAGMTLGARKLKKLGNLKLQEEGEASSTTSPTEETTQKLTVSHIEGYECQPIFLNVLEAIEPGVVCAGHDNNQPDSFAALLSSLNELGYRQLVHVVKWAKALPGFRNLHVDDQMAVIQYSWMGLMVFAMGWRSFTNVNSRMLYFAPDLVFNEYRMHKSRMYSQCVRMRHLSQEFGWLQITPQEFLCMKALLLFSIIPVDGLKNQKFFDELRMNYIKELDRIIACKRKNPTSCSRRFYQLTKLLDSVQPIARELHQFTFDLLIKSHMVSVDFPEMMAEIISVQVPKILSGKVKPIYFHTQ
Description: PC-3 cells (Kaighn et al., Invest. Urol. 17: 16-23, 1979) were plated out at a density of 10000 cells per well of a 96-well cell culture plate in RMPI 1640 medium (F1235, Biochrom AG Berlin, Germany) that contained activated charcoal-treated calf serum (FCS Serum Gold, PAA Laboratories) at a concentration of 5% (v/v). On the next day the cells were transiently transfected with the pSG5-vector (#216201 Stratagene), which contained the sequence of the androgen receptor mutant E709Y (Georget et al., Mol. Endocrinol. 20(4): 724-734, 2006), and with the MMTV-luciferase plasmid (see above, transactivation assay for the androgen receptor mutant W741C). The cells were treated with the test substances in concentrations from 1×10^−8 to 1×10^−10 M in the presence of 1×10^−10 M R1881 and were incubated overnight at 37° C. and 5% CO2. After 24 hours, 100 μl of Steady Glo Lysis and Detection reagent (E2550, Promega) was added per well and the luminescence was read in a Victor3 Luminometer (PerkinElmer) for 1 second per well. The luminescence values obtained were normalized, wherein 100% corresponded to the effect of the unstimulated control (without R1881), and 0% corresponded to the effect of the stimulated control (R1881 plus DMSO instead of test substance). The IC50 value was determined by regression analysis based on a four-parameter equation (minimum, maximum, IC50, Hill coefficient; Y=Max+(Min−Max)/(1+(X/IC50)^Hill)).

[2] = target: human androgen receptor (full length, wild-type form) (Homo sapiens (Human), UniProt P10275); assay: Transactivation assay for the wild-type androgen receptor (PC-3 cells, MMTV-luciferase reporter); type: cell-based; conditions: in the presence of R1881, 16 hours
Sequence of human androgen receptor (full length, wild-type form) (P10275 whole entry): as the sequence (P10275 whole entry E710Y) above, with Y710E counted along it
From the text: For determining the androgen receptor-dependent transcription, a cellular assay system was used, consisting of PC-3 cells (Kaighn et al., Invest. Urol. 17: 16-23, 1979), which express the human androgen receptor stably and recombinantly (full length, wild-type form, see Swiss-Prot Acc. No. P10275, Entry Version 159, Sequence Version 2). In addition, these PC3 cells contain a stably integrated reporter gene plasmid, which is based on the commercially available plasmid pGL4.14 (#E6691, Promega Corporation, Madison, Wis., USA) and contains the luciferase gene from the American firefly (Photinus pyralis) under the control of the MMTV promoter (Cato et al., EMBO J. 6: 363-368, 1987). These cells were propagated in routine cell culture at 37° C. and 5% CO2 in a medium containing 90% RPMI 1640 (Invitrogen GmbH, Darmstadt, Germany), 100 U penicillin, 100 μg/ml streptomycin (Invitrogen), 4 mM L-glutamine (Invitrogen), 10% fetal calf serum (FCS Serum Gold, PAA Laboratories GmbH, Cölbe, Germany), 600 μg/ml Geneticin (G418-sulphate, Invitrogen) and 10 μg/ml puromycin (Sigma Aldrich GmbH, Germany).
For carrying out the transactivation assays, approx. 1000 cells per well were plated out in a 384-well cell culture plate in a medium that contained activated charcoal-treated calf serum (FCS Serum Gold, PAA Laboratories) at a concentration of 5% (v/v). The test substances were added in a concentration series from 5.12×10^−12 to 1×10^−5 M in the presence of […] R1881 (methyltrienolone). The test plates were incubated overnight at 37° C. and 5% CO2. After 16 hours, 15 μl of Steady Glo Lysis and Detection reagent (E2550, Promega Corporation, Madison, Wis., USA) was added per well and the luminescence was read in a Topcount Luminometer (PerkinElmer, Waltham, Mass., USA) for 4 seconds per well. The luminescence values obtained were normalized, wherein 100% corresponded to the effect of the unstimulated control (without R1881), and 0% corresponded to the effect of the stimulated control (R1881 plus DMSO instead of test substance). The IC50 value was determined by regression analysis based on a four-parameter equation (minimum, maximum, IC50, Hill coefficient; Y=Max+(Min−Max)/(1+(X/IC50)^Hill)).

IC50 [1]: 9 nM
IC50 [2]: 52 nM
SMILES: N#Cc1cccc2c(O[C@H]3CC[C@H](NC(=O)c4cccc(F)c4)CC3)ccnc12 [Example 23, N-{trans-4-[(8-cyanoquinolin-4-yl)oxy]cyclohexyl}-3-fluorobenzamide]
